Source: patent publication US7608581B2, “Biofunctional, antimicrobial coatings for medical devices” (Affinergy, Inc., priority 2004, dated 2009)

Conditions: as compared to SEQ ID NO:73 (two cysteines substituted by serine)

SDKSHKHWYSYESKYGGS [SEQ ID NO:74]
reduction in binding affinity: 10 fold
